Ten molecules from patent US11656182B2, “Method, composition, and chip for detecting analyte in blood sample” (TERUMO KABUSHIKI KAISHA, priority 2016, dated 2023) can be followed below.

Data set [1] can be described thus: Precipitates by visual inspection before drying after coating film formation. As to conditions: coating liquid. The data set is classed as physicochemical. The text has this: In the production step of the blood glucose value detection chip, existence of precipitates was confirmed by visual inspection before drying after coating film formation.
Data set [2] can be described thus: Spectrum analysis of detection chip before blood sample is deposited (transmittance of refractive index adjuster at 650 nm). The data set is classed as physicochemical. As to conditions: absorption peak wavelength of WST-4. On the procedure: The outline of an evaluation system used in spectrum analysis will be described below. Further, the outline of the evaluation system is illustrated in FIG. 6.
Light source: Halogen light source SPL-2H (KLV Co., Ltd.)
Conforming fiber: Core diameter=200μ or more
Spectrometer: Small fiber optical spectrometer USB2000+(Ocean Optics, Inc.)
The spectrum analysis was performed using the blood glucose value detection chips obtained in each of Embodiments and Comparative Embodiments. Incidentally, since the spacer thickness of the blood glucose value detection chip is 50 μm, the optical path length becomes 50 μm. […] Incidentally, the correction of the absorbance was performed by dividing the absorbance (actual measurement value) in each measurement wavelength by the value of the clearance (CL) (μm) actually measured in each chip and further multiplying the obtained value by […].
In the conditions of respective Embodiments and Comparative Embodiments, the value of absorbance at 650 nm (the absorption peak wavelength of WST-4) measured using the chip before the blood sample is deposited is not substantially different from the absorbance value measured by dissolving the refractive index adjuster in water and setting an optical path length of 50 μm. Therefore, from the transmittance curve before the blood sample is deposited, the transmittance of the refractive index adjuster in 650 nm that is the absorption peak wavelength of WST-4 was obtained. Incidentally, in Table 1, “⊙” represents that the transmittance at 650 nm is 60% or more and 100% or less, “◯” represents that the transmittance at 650 nm is 40% or more and less than 60%, and “X” represents that the transmittance at 650 nm is less than 40%.

The nature of data set [3]: Degree of solubility with respect to water at 20° C. The format is physicochemical.
A short description of data set [4]: Solubility observed in preparation of coating liquid and chip (Comparative Embodiments). An excerpt: Further, the solubility with respect to the blood sample was low, so that the spectrum analysis was not able to be performed.
Data set [5] is described as follows: Refractive index increasing capability of refractive index adjuster (refractometer, aqueous solutions). The format is physicochemical. Conditions: increase amount of the refractive index per 1 [mg/ml]; inclination of approximate straight line, aqueous solutions 0 to 350 mg/ml. On the procedure: Aqueous solutions prepared to have a plurality of concentrations within a range of 0 to 350 mg/ml were prepared for the respective refractive index adjusters. The refractive index of each aqueous solution was obtained with a refractometer PAL-RI (ATAGO CO., LTD.). A graph was created in which the concentration of each aqueous solution is plotted on the horizontal axis and the refractive index is plotted for each refractive index adjuster on the vertical axis, and the inclination of the approximate straight line was obtained (a value of “Refractive index increasing capability” in Table 1 indicates an increase amount of the refractive index per 1 [mg/ml], and a larger inclination indicates higher refractive index increasing capability of the refractive index adjuster). Incidentally, “unmeasurable” in Table 1 means that an aqueous solution could not be prepared due to generation of precipitates.

The test system of another data set is red blood cell. Put plainly: Red blood cell reducing capability of refractive index adjuster (hematocrit value change). The format is cell-based. As to conditions: 50 mM in blood sample, hematocrit value 40 before addition, 5 minutes after mixing. On the procedure: 400 μL of blood plasma was recovered from 1.0 ml of blood sample (hematocrit value: 40). A refractive index adjuster was added to 400 μL of the recovered blood plasma to have a concentration of 125 mM. The blood plasma after addition of the refractive index adjuster combined with the original blood sample and mixed by inverting (the concentration of the refractive index adjuster in the blood sample becoming 50 mM). The sample after 5 minutes from mixing by inverting was filled in a hematocrit tube and was separated by centrifugation with a hematocrit centrifuge at 11×10^3 rpm for 5 minutes. A hematocrit value (Ht) after separation by centrifugation was read. […] Incidentally, “unmeasurable” in Table 1 means that the degree of solubility of the refractive index adjuster was low so that measurement could not be performed.

Where [6] appears, read: chip with coating liquid, blood sample.

Converted amounts (≈) assume the structure as drawn. “Also recorded” adds a separate entry of the source. Like-named read-outs stand apart in the source and are kept apart here.

Turning to `CCN(CC)c1ccc(C(=C2C=CC(=[N+](CC)CC)C=C2)c2ccc(S(=O)(=O)[O-])cc2S(=O)(=O)[O-])cc1.[Na+]` [Acid Blue 1, reference compound], in data set [1], the Precipitates entry is given as “precipitates were generated; also recorded: Present”. In addition, the “Transmittance 650 nm (Coloring reagent absorption peak wavelength)” value (from here on “Transmittance 650 nm”) in data set [2] is given as “×”. Also, the “Degree of solubility (class)” value in data set [3] is recorded as “×”. In data set [4], the “solubility with respect to the blood sample” value was “low” and the “solubility with respect to water” value is listed as “low”.

Turning to `O=S(=O)([O-])c1ccc2c(N=Nc3ccc(S(=O)(=O)[O-])c4ccccc34)c(O)c(S(=O)(=O)[O-])cc2c1.[Na+].[Na+].[Na+]` [Acid Red 27], the “Refractive index increasing capability” value in data set [5] came to 0.000381. Also, in the data set on red blood cell, the “Red blood cell reducing capability (ΔHt)” value is 6.7. Further, the Precipitates entry in data set [1] is listed as “Absent”. For the same molecule, in data set [2], the “Transmittance 650 nm” value is “◯ (the transmittance at 650 nm is 40% or more and less than 60%)”. The Degree of solubility in data set [3] amounted to 83 mM.

On to `O=C([O-])C1=NN(c2ccc(S(=O)(=O)[O-])cc2)C(=O)C1N=Nc1ccc(S(=O)(=O)[O-])cc1.[Na+].[Na+].[Na+]` (centres unmarked) [Acid Yellow 23], for which, in data set [5], the “Refractive index increasing capability” value is 0.000277. For the same molecule, the “Red blood cell reducing capability (ΔHt)” value in the data set with red blood cell was found to be 8.2. For the same molecule, the Precipitates result in data set [1] was “Absent”. Moreover, the “Transmittance 650 nm” value in data set [2] is “⊙ (the transmittance at 650 nm is 60% or more and 100% or less)”. For the same molecule, in data set [3], the Degree of solubility worked out at 487 mM.

Turning to `O=S(=O)(O)c1cccc(S(=O)(=O)O)c1` [DSB, 1,3-benzene disulfonate], the “Refractive index increasing capability” value in data set [5] is 0.000126. Moreover, the “Red blood cell reducing capability (ΔHt)” value with red blood cell is 9.0. The Precipitates entry in data set [1] is listed as “Absent”. Also, the “Transmittance 650 nm” value in data set [2] is “⊙ (the transmittance at 650 nm is 60% or more and 100% or less)”.

Regarding `O=S(=O)(O)c1cc(S(=O)(=O)O)c2c(/N=N/c3ccccc3)c(O)ccc2c1` [Orange G], the “Refractive index increasing capability” value in data set [5] turned out to be 0.000296. Moreover, the “Red blood cell reducing capability (ΔHt)” value with red blood cell was 1.9. Further, the Precipitates entry in data set [1] is “Absent”. Moreover, in data set [2], the “Transmittance 650 nm” value was “⊙ (the transmittance at 650 nm is 60% or more and 100% or less)”. The same molecule displayed a Degree of solubility in data set [3] of 220 mM.

As for `OC[C@H]1O[C@H](O[C@]2(CCl)O[C@H](CCl)[C@@H](O)[C@@H]2O)[C@H](O)[C@@H](O)[C@H]1Cl` [Sucralose, sucralose], in data set [5], the “Refractive index increasing capability” value worked out at 0.000129. Moreover, the “Red blood cell reducing capability (ΔHt)” value with red blood cell was determined as 0.5. Moreover, in data set [1], the Precipitates entry is reported as “Absent”. Further, the “Transmittance 650 nm” value in data set [2] was “⊙ (the transmittance at 650 nm is 60% or more and 100% or less)”. Also, the solubility (as a rule, how much of the substance goes into solution per volume) in data set [3] came out at 820 mM (≈ 326 mg/mL).

With `OC[C@H]1O[C@H](O[C@H]2O[C@H](CO)[C@@H](O)[C@H](O)[C@H]2O)[C@H](O)[C@@H](O)[C@@H]1O` [Trehalose, trehalose], in data set [5], the “Refractive index increasing capability” value turned out to be 0.000109. In the data set on red blood cell, the “Red blood cell reducing capability (ΔHt)” value was determined as 3.5. For the same molecule, the Precipitates result in data set [1] is listed as “Absent”. Besides, the “Transmittance 650 nm” value in data set [2] is “⊙ (the transmittance at 650 nm is 60% or more and 100% or less)”. In data set [3], the solubility is 200 mM (≈ 68.5 mg/mL).

Regarding `O=[N+]([O-])c1ccc(-[n+]2nc(-c3ccc(S(=O)(=O)[O-])cc3S(=O)(=O)[O-])nn2-c2ccc(I)cc2)cc1.[Na+]` [Wst-1, 2-(4-iodophenyl)-3-(4-nitrophenyl)-5-(2,4-disulfophenyl)-2H-tetrazolium sodium salt, reference compound], in data set [5], the “Refractive index increasing capability” value amounted to 0.000174. Further, the Precipitates result in data set [1] was “Absent”. Further, in data set [2], the “Transmittance 650 nm” value is listed as “×”. For the same molecule, in data set [4] (setting [6]), the “solubility with respect to the blood sample” value is reported as “low”.

Take `COc1cc([N+](=O)[O-])ccc1-n1nc(-c2ccc(S(=O)(=O)[O-])cc2S(=O)(=O)[O-])n[n+]1-c1ccc([N+](=O)[O-])cc1.[Na+]` [Wst-8, 2-(2-methoxy-4-nitrophenyl)-3-(4-nitrophenyl)-5-(2,4-disulfophenyl)-2H-tetrazolium sodium salt, reference compound]: the “Refractive index increasing capability” value in data set [5] was 0.000189. Besides, in data set [1], the Precipitates entry is “Absent”. In addition, the “Transmittance 650 nm” value in data set [2] is “×”. Further, the “solubility with respect to the blood sample” value in data set [4] (setting [6]) is reported as “low”.

Take Acid Fuchsin [reference compound]: the “Refractive index increasing capability” value in data set [5] stood at 0.000259. The “Red blood cell reducing capability (ΔHt)” value in the data set on red blood cell was 14.3. For the same molecule, the Precipitates result in data set [1] was “Absent”. The “Transmittance 650 nm” value in data set [2] was “×”. The Degree of solubility in data set [3] was determined as 340 mM.
